# Measured values as given in patent US20130317067A1, “PESTICIDAL MIXTURES WITH IMPROVED PROPERTIES” (BAYER INTELLECTUAL PROPERTY GMBH, priority 2010, published 2013).
# Key:
# Format in all cases: in vivo
# [1] = test system: green peach aphid (Myzus persicae); assay: Myzus persicae test (oil seed rape seed treatment)
# Protocol: (§1) The expected efficacy of a given combination of two compounds is calculated as follows (see Colby, S. R., “Calculating Synergistic and antagonistic Responses of Herbicide Combinations”, Weeds 15, pp. 20-22, 1967):
# (§2) If • X is the efficacy expressed in % mortality of the untreated control for test compound A at a concentration of m ppm respectively m g/ha, • Y is the efficacy expressed in % mortality of the untreated control for test compound B at a concentration of n ppm respectively n g/ha, • E is the efficacy expressed in % mortality of the untreated control using the mixture of A and B at m and n ppm respectively m and n g/ha, then is
# (§3) If the observed insecticidal efficacy of the combination is higher than the one calculated as “E”, then the combination of the two compounds is more than additive, i.e., there is a synergistic effect.
# (§4) If not mentioned otherwise, the crystalline modification I of 4-{[(6-chloropyrid-3-yl)methyl](methyl)amino}furan-2(5H)-one has been prepared as a water-dispersible or water-soluble powder in an active ingredient concentration of 70% (wt/wt) involving the following formulation auxiliaries, whereas the amount of auxiliaries sums up to 100 wt. %:
# (§5) The auxiliaries were mixed with the appropriate amount of the crystalline modification I of 4-{[(6-chloropyrid-3-yl)methyl](methyl)amino}furan-2(5H)-one. There is no water or solvent added. To enable the dry mixture to stick on the seed, the seed were treated with a minimal amount of water, namely […] for 2 g canola seeds, and 800 μl für 20 g cotton seeds
# (§6) Seeds of Oil seed rape were treated with the compounds or mixtures and sown. Ca. 35 days after germination the plants were infested with a mixed population of the green peach aphid (Myzus persicae). After the specified period of time, the mortality in % is determined. 100% means that all the aphids have been killed; 0% means that none of the aphids have been killed.
# [2] = test system: larvae of the mustard beetle (Phaedon cochleariae); assay: Phaedon cochleariae larvae test (oil seed rape seed treatment)
# Protocol: as §1, §2, §3, §4, §5
# as §6, with “larvae” for “mixed population”, “mustard beetle (Phaedon cochleariae).” for “green peach aphid (Myzus persicae).”, “beetle larvae” for “aphids”
# [3] = test system: cotton aphid (Aphis gossypii); assay: Aphis gossypii test (cotton seed treatment)
# Protocol: as §1, §2, §3, §4, §5
# as §6, with “Cotton seeds” for “Seeds of Oil seed rape”, “10” for “Ca. 35”, “cotton” for “green peach”, “(Aphis gossypii).” for “(Myzus persicae).”
smiles,measurement,setting,value
CSC1=N[C@@](C)(c2ccccc2)C(=O)N1Nc1ccccc1 [Fenamidone],Kill rate [in % after 3 days],[1]; 0.5 mg ai/grain,0%
same,Kill rate [in % after 7 days],[1]; 0.5 mg ai/grain,0%
O=C(NCc1ncc(C(F)(F)F)cc1Cl)c1c(Cl)cccc1Cl [Fluopicolide],Kill rate [in % after 5 days],[2]; 1 mg ai/grain,0%
CCO[PH](=O)O [Fosetyl-Al],Kill rate [in % after 2 days],[1]; 1 mg ai/grain,0%
CC1(C(=O)Nc2ccc(O)c(Cl)c2Cl)CCCCC1 [Fenhexamid],Kill rate [in % after 2 days],[3]; 0.5 mg ai/grain,0%
"N#Cc1c[nH]cc1-c1cccc2c1OC(F)(F)O2 [Fluodioxonil, Fludioxonil]",Kill rate [in % after 4 days],[2]; 05 mg ai/grain (so in the source),0%
CON=C(C(=O)OC)c1ccccc1CON=C(C)c1cccc(C(F)(F)F)c1 [Trifloxystrobin],Kill rate [in % after 1 day],[3]; 0.5 mg ai/grain,0%
CN(Cc1ccc(Cl)nc1)C1=CC(=O)OC1 [4-{[(6-chloropyrid-3-yl)methyl](methyl)amino}furan-2(5H)-one],Kill rate [in % after 2 days],[3]; 0.01 mg ai/grain,63%
same,Kill rate [in % after 1 day],[3]; 0.025 mg ai/grain,0%
same,Kill rate [in % after 2 days],[3]; 0.025 mg ai/grain,80%
same,Kill rate [in % after 2 days],[1]; 0.01 mg ai/grain,10%
same,Kill rate [in % after 7 days],[1]; 0.01 mg ai/grain,0%
same,Kill rate [in % after 3 days],[1]; 0.025 mg ai/grain,0%
same,Kill rate [in % after 4 days],[2]; 0.01 mg ai/grain,0%
same,Kill rate [in % after 5 days],[2]; 0.025 mg ai/grain,5.56%
Cn1cc(C(=O)Nc2ccc(F)cc2-c2ccc(Cl)c(Cl)c2)c(C(F)F)n1 [Bixafen],Kill rate [in % after 2 days],[3]; 0.5 mg ai/grain,0%
CCC1(C(=O)N[C@H](C)c2ccc(Cl)cc2)C(C)C1(Cl)Cl (some centres unmarked) [Carpropamid],Kill rate [in % after 1 day],[3]; 0.5 mg ai/grain,0%
